pEC50: −log10 of the molar value. Like-named read-outs stand apart in the source and are kept apart here.

One experiment deals with E. coli PBP4 (Escherichia coli (strain K12), UniProt P24228). In words: E. coli PBP4 Bocillin-FL fluorescence polarization competition binding assay. The source says: To determine the ability of boronic acid-based test PBP inhibitors to bind Penicillin Binding Proteins (PBPs), Bocillin-FL (fluorescently-labeled penicillin V; ThermoFisher Scientific) was used in a fluorescence polarization (FP) competition binding assay to assess inhibitor binding to PBP2, PBP3 or PBP4 from Escherichia coli. PBPs were cloned and purified as described previously (King, D. T, et al., ACS Infectious Diseases 2015, 1, 175-184). To establish assay conditions for competition binding, an enzyme titration/saturation binding experiment was initially performed. Bocillin-FL was prepared at 0.2 μM in a buffer comprised of 50 mM Hepes (pH 8.0), 300 mM NaCl and 5% (v/v) glycerol. Saturation binding was performed by mixing 40 μl of PBP solutions ranging in concentrations from 0-12 μM with 40 μl of the 0.2 μM Bocillin-FL solution, in individual wells of a black 384-well microplate. FP was measured immediately upon mixing (Excitation, 490 nm; Emission, 520 nm; g-factor, 0.96), using a Cytation3 (BioTek) microplate reader and measured continuously for up to 120 minutes. […] Assays (80 μl final volume) were performed with PBPs at a final concentration of 1.5 μM, Bocillin-FL at 0.1 μM and beta-lactam concentrations that ranged from 0-1000 μM. […] Bocillin-FL was added and the FP immediately measured for 60 minutes (90 minutes for PBP2). The beta-lactam potency was reported as the concentration of beta-lactam required to reduce binding of Bocillin-FL by […] (EC50). […] Binding assays for boronic acid PBP inhibitors were performed in an identical fashion.
For orientation: In fluorescence polarisation assays a small probe gives low polarisation when free and higher when bound to something large.

Another experiment relates to A. baumannii ATCC 19606. Kind of experiment: Broth microdilution MIC, A. baumannii ATCC 19606. The experiment is classed as cell-based. The following applies: Acinetobacter baumannii, ATCC19606; A. baumannii ATCC 19606, broth microdilution; read-out: MIC A. baumannii ATCC 19606. In outline:
(§1)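 Following CLSI guidance, growth inhibition is measured in Mueller-Hinton broth with divalent cations. Inoculum 5×10^5 CFU/mL; incubation 16-20 hours, 37° C; endpoint is visual absence of growth.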
On the technique in general: In broth dilution the organism is exposed to a series of concentrations in liquid medium.

In experiment [1] the test system is P. aeruginosa (ΔmexAB-oprM). Kind of experiment: microbe, parasite or virus in culture. It counts as cell-based. To be noted: Pseudomonas aeruginosa, read-out: MIC P. aeruginosa ΔmexAB-OprM. The method, boiled down: as §1
The subject of another experiment is P. aeruginosa ATCC 35151. Kind of experiment: microbe, parasite or virus in culture. It counts as cell-based. To be noted: Pseudomonas aeruginosa, ATCC35151; hyper-permeable P. aeruginosa ATCC 35151; read-out: MIC P. aeruginosa ATCC 35151. In outline:
as §1

Another experiment deals with E. coli PBP1b (Escherichia coli (strain K12), UniProt P02919). In words: Radioligand competition binding assay with 14C-labeled boronic acid probe, PBP1b. A general note: Displacement assays read how much labelled ligand stays bound in the presence of the test substance.
In a further experiment the test system is P. aeruginosa PAO1. Kind of experiment: Broth microdilution MIC, P. aeruginosa PAO1. It counts as cell-based. The following applies: Pseudomonas aeruginosa; P. aeruginosa PAO1, broth microdilution; read-out: MIC P. aeruginosa PAO1. In outline: as §1
[2] abbreviates: fluorescence polarization competition binding with Bocillin-FL, read-out: E. coli K12 PBP4 Potency (EC50).

E. coli PBP1b, sequence (P02919 whole entry): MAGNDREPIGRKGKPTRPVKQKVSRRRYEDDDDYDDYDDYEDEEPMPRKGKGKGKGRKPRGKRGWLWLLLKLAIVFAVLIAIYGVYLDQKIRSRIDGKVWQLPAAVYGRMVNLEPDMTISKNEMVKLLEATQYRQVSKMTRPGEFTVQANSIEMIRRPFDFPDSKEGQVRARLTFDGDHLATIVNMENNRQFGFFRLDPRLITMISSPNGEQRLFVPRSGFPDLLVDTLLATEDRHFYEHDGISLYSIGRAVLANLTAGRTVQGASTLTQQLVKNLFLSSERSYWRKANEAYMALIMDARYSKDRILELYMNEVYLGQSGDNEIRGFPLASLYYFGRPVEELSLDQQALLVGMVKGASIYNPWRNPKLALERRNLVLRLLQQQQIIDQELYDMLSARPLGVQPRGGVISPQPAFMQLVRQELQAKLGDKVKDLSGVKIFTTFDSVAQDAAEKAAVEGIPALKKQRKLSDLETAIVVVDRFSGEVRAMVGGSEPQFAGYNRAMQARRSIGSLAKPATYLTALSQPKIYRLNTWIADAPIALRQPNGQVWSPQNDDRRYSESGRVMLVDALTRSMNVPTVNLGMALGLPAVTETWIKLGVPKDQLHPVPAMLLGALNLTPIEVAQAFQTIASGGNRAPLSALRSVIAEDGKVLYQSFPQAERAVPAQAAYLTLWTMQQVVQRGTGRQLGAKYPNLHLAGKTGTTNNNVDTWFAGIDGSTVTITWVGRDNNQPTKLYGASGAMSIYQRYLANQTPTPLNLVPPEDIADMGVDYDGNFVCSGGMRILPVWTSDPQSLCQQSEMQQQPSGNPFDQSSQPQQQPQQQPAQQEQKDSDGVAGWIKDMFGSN
E. coli PBP4, sequence (P24228 21-477): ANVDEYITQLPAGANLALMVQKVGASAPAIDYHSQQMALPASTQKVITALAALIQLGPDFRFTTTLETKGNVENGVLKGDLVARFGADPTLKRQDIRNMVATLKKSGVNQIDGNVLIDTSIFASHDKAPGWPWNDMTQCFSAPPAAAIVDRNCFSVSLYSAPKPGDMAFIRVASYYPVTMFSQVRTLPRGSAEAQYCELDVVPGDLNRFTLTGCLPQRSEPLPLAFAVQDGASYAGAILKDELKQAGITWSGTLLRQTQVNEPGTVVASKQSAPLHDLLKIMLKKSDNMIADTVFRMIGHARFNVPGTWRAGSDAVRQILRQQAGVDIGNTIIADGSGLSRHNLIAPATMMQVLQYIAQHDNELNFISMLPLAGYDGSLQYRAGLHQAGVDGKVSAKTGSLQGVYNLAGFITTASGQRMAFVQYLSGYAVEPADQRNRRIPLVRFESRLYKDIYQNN

Regarding `CCN1CCN(C(=O)NC(C(=O)N[C@H]2Cc3cccc(C(=O)O)c3OB2O)c2cc(O)c(O)cc2F)C(=O)C1=O` (stereo partly drawn) [Example 90, (3R)-3-(2-(4-ethyl-2,3-dioxopiperazine-1-carboxamido)-2-(2-fluoro-4,5-dihydroxyphenyl)acetamido)-2-hydroxy-3,4-dihydro-2H-benzo[e][1,2]oxaborinine-8-carboxylic acid], the pEC50 (usually the EC50 on a negative log10 scale, so that one unit is a factor of ten) at E. coli PBP4 (setting [2]) was less than 3.30.

With `O=C(O)c1cccc2c1OB(O)[C@@H](NC(=O)C(NC(=O)N1CCN(CCF)C(=O)C1=O)c1ccc(O)c(O)c1Cl)C2` (stereo partly drawn) [Example 71, (3R)-3-(2-(2-chloro-3,4-dihydroxyphenyl)-2-(4-(2-fluoroethyl)-2,3-dioxopiperazine-1-carboxamido)acetamido)-2-hydroxy-3,4-dihydro-2H-benzo[e][1,2]oxaborinine-8-carboxylic acid], the MIC in the experiment with A. baumannii ATCC 19606 fell in the range of 0.5 to 1 µg/mL; in experiment [1] it was 2 to 4 µg/mL; in the experiment with P. aeruginosa ATCC 35151 it was 0.5 to 1 µg/mL; in the experiment on P. aeruginosa PAO1, 32 to 64 µg/mL. This compound had a pEC50 at E. coli PBP1b of more than 5.00.

With `CCN1CCN(C(=O)NC(C(=O)N[C@H]2Cc3cccc(C(=O)O)c3OB2O)c2cccc(O)n2)C(=O)C1=O` (stereo partly drawn) [Example 117, (3R)-3-(2-(4-ethyl-2,3-dioxopiperazine-1-carboxamido)-2-(6-hydroxypyridin-2-yl)acetamido)-2-hydroxy-3,4-dihydro-2H-benzo[e][1,2]oxaborinine-8-carboxylic acid], the pEC50 at E. coli PBP1b is less than 4.00; at E. coli PBP4 (setting [2]) it was less than 3.30.

As for `CCN1CCN(C(=O)NC(C(=O)N[C@H]2Cc3cccc(C(=O)O)c3OB2O)c2csc(N)n2)C(=O)C1=O` (stereo partly drawn) [Example 5, (3R)-3-(2-(2-aminothiazol-4-yl)-2-(4-ethyl-2,3-dioxopiperazine-1-carboxamido)acetamido)-2-hydroxy-3,4-dihydro-2H-benzo[e][1,2]oxaborinine-8-carboxylic acid], the pEC50 on E. coli PBP1b is more than 5.00; on E. coli PBP4 (setting [2]), less than 3.30.

Turning to `CCN1CCN(C(=O)NC(C(=O)N[C@H]2Cc3ccc(F)c(C(=O)O)c3OB2O)c2cc(O)c(O)cc2F)C(=O)C1=O` (stereo partly drawn) [Example 136, (3R)-3-(2-(4-ethyl-2,3-dioxopiperazine-1-carboxamido)-2-(2-fluoro-4,5-dihydroxyphenyl)acetamido)-7-fluoro-2-hydroxy-3,4-dihydro-2H-benzo[e][1,2]oxaborinine-8-carboxylic acid], the MIC with A. baumannii ATCC 19606 was in the range of 2 to 4 µg/mL; in experiment [1], 0.5 to 1 µg/mL; in the experiment with P. aeruginosa ATCC 35151 it was 0.5 to 1 µg/mL; with P. aeruginosa PAO1, 8 to 16 µg/mL. For the same compound, the pEC50 at E. coli PBP1b was 4.00 to 5.00; at E. coli PBP4 (setting [2]), less than 3.30.

Take `CCCN1CCN(C(=O)NC(C(=O)N[C@H]2Cc3ccc(F)c(C(=O)O)c3OB2O)c2ccc(O)c(O)c2Cl)C(=O)C1=O` (some centres unmarked) [Example 125]: the MIC in the experiment with A. baumannii ATCC 19606 is less than 0.25 µg/mL; in experiment [1], less than 0.25 µg/mL; with P. aeruginosa ATCC 35151 it was less than 0.25 µg/mL; with P. aeruginosa PAO1, 0.5 to 1 µg/mL. Also, the pEC50 at E. coli PBP1b was more than 5.00.

Take `CCN1CCN(C(=O)NC(C(=O)N[C@H]2Cc3cccc(C(=O)O)c3OB2O)c2ccc(O)cc2)C(=O)C1=O` (stereo partly drawn) [Example 27, (3R)-3-(2-(4-ethyl-2,3-dioxopiperazine-1-carboxamido)-2-(4-hydroxyphenyl)acetamido)-2-hydroxy-3,4-dihydro-2H-benzo[e][1,2]oxaborinine-8-carboxylic acid]: the pEC50 at E. coli PBP4 (setting [2]) was less than 3.30.

Take `CCN1CCN(C(=O)NC(C(=O)N[C@H]2Cc3cc(F)cc(C(=O)O)c3OB2O)c2csc(N)n2)C(=O)C1=O` (stereo partly drawn) [Example 16, (3R)-3-(2-(2-aminothiazol-4-yl)-2-(4-ethyl-2,3-dioxopiperazine-1-carboxamido)acetamido)-6-fluoro-2-hydroxy-3,4-dihydro-2H-benzo[e][1,2]oxaborinine-8-carboxylic acid]: at E. coli PBP4 (setting [2]), the pEC50 was less than 3.30.

As for `CCN1CCN(C(=O)N[C@@H](C(=O)N[C@H]2Cc3ccc(F)c(C(=O)O)c3OB2O)[C@@H](C)O)C(=O)C1=O` [Example 110, (R)-3-((2R,3R)-2-(4-ethyl-2,3-dioxopiperazine-1-carboxamido)-3-hydroxybutanamido)-7-fluoro-2-hydroxy-3,4-dihydro-2H-benzo[e][1,2]oxaborinine-8-carboxylic acid], the pEC50 on E. coli PBP1b is less than 4.00; on E. coli PBP4 (setting [2]), less than 3.30.

Regarding `CCN1CCN(C(=O)NC(C(=O)N[C@H]2Cc3ccc(F)c(C(=O)O)c3OB2O)c2ncc(O)cc2F)C(=O)C1=O` (stereo partly drawn) [Example 145, (3R)-3-(2-(4-ethyl-2,3-dioxopiperazine-1-carboxamido)-2-(3-fluoro-5-hydroxypyridin-2-yl)acetamido)-7-fluoro-2-hydroxy-3,4-dihydro-2H-benzo[e][1,2]oxaborinine-8-carboxylic acid], the MIC with A. baumannii ATCC 19606 is more than 128 µg/mL; in experiment [1], 8 to 16 µg/mL; in the experiment with P. aeruginosa ATCC 35151, 8 to 16 µg/mL; in the experiment on P. aeruginosa PAO1, more than 128 µg/mL. The pEC50 on E. coli PBP1b is less than 4.00; on E. coli PBP4 (setting [2]) it was less than 3.30.

Take `CCN1CCN(C(=O)NC(C(=O)N[C@H]2Cc3cccc(C(=O)O)c3OB2O)c2cnc(O)cn2)C(=O)C1=O` (stereo partly drawn) [Example 121, (3R)-3-(2-(4-ethyl-2,3-dioxopiperazine-1-carboxamido)-2-(5-hydroxypyrazin-2-yl)acetamido)-2-hydroxy-3,4-dihydro-2H-benzo[e][1,2]oxaborinine-8-carboxylic acid]: the figures for the pEC50 on E. coli PBP1b and at E. coli PBP4 (setting [2]) were less than 4.00 and less than 3.30, respectively.

Consider `CCN1CCN(C(=O)NC(C(=O)N[C@H]2Cc3ccc(F)c(C(=O)O)c3OB2O)c2ccc(O)c(O)c2Cl)C(=O)C1=O` (stereo partly drawn) [Example 124, (3R)-3-(2-(2-chloro-3,4-dihydroxyphenyl)-2-(4-ethyl-2,3-dioxopiperazine-1-carboxamido)acetamido)-7-fluoro-2-hydroxy-3,4-dihydro-2H-benzo[e][1,2]oxaborinine-8-carboxylic acid], for which the MIC with A. baumannii ATCC 19606 is 0.5 to 1 µg/mL; in experiment [1] it was less than 0.25 µg/mL; with P. aeruginosa ATCC 35151, less than 0.25 µg/mL; with P. aeruginosa PAO1 it was 0.5 to 1 µg/mL. The compound also showed a pEC50 at E. coli PBP1b of more than 5.00.

For `CCCN1CCN(C(=O)NC(C(=O)N[C@H]2Cc3cccc(C(=O)O)c3OB2O)c2ccc(O)c(O)c2Cl)C(=O)C1=O` (stereo partly drawn) [Example 82, (3R)-3-(2-(2-chloro-3,4-dihydroxyphenyl)-2-(2,3-dioxo-4-propylpiperazine-1-carboxamido)acetamido)-2-hydroxy-3,4-dihydro-2H-benzo[e][1,2]oxaborinine-8-carboxylic acid], the pEC50 at E. coli PBP1b was 4.00 to 5.00; at E. coli PBP4 (setting [2]) it was less than 3.30.

For the compound `CCN1CCN(C(=O)NC(C(=O)N[C@H]2Cc3cccc(C(=O)O)c3OB2O)c2cnc(N)s2)C(=O)C1=O` (stereo partly drawn) [Example 51, (3R)-3-(2-(2-aminothiazol-5-yl)-2-(4-ethyl-2,3-dioxopiperazine-1-carboxamido)acetamido)-2-hydroxy-3,4-dihydro-2H-benzo[e][1,2]oxaborinine-8-carboxylic acid], the figures for the pEC50 at E. coli PBP1b and at E. coli PBP4 (setting [2]) were 4.00 to 5.00 and less than 3.30, respectively.

As for `O=C(O)c1c(F)ccc2c1OB(O)[C@@H](NC(=O)C(NC(=O)N1CCN(CCF)C(=O)C1=O)c1ccc(O)c(O)c1Cl)C2` (some centres unmarked) [Example 131], the MIC in the experiment with A. baumannii ATCC 19606 is 8 to 16 µg/mL; in experiment [1], less than 0.25 µg/mL; in the experiment with P. aeruginosa ATCC 35151, less than 0.25 µg/mL; in the experiment on P. aeruginosa PAO1 it was 0.5 to 1 µg/mL. The pEC50 at E. coli PBP1b was 4.00 to 5.00; on E. coli PBP4 it was 3.30 to 4.52.

In the case of `CCN1CCN(C(=O)NC(C(=O)N[C@H]2Cc3cccc(C(=O)O)c3OB2O)c2ccc(O)cc2F)C(=O)C1=O` (stereo partly drawn) [Example 87, (3R)-3-(2-(4-ethyl-2,3-dioxopiperazine-1-carboxamido)-2-(2-fluoro-4-hydroxyphenyl)acetamido)-2-hydroxy-3,4-dihydro-2H-benzo[e][1,2]oxaborinine-8-carboxylic acid], the pEC50 at E. coli PBP4 (setting [2]) was less than 3.30.

As to `CCN1CCN(C(=O)NC(C(=O)N[C@H]2Cc3cccc(C(=O)O)c3OB2O)c2ccc(O)c(O)c2Cl)C(=O)C1=O` (stereo partly drawn) [Example 37, (3R)-3-(2-(2-chloro-3,4-dihydroxyphenyl)-2-(4-ethyl-2,3-dioxopiperazine-1-carboxamido)acetamido)-2-hydroxy-3,4-dihydro-2H-benzo[e][1,2]oxaborinine-8-carboxylic acid], on E. coli PBP4 (setting [2]), the pEC50 is less than 3.30.
